Results reported in patent US20240393292A1, “ALLERGY ANTIGEN AND EPITOPE THEREOF” (HOYU CO., LTD., priority 2019, published 2024).
Values belong to the substance of their own block, whether it stands above or below them.

Tested on: IgE antibodies from patients
Assay: Wheat epitope mapping (2): overlapping 10-amino-acid peptide fragments shifted by one amino acid;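 as to Rank of partial sequence as epitope binding to IgE antibody: key = sequence deemed particularly important within the common 15-residue sequence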;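 as to epitope sequence binding to IgE antibody, rank (Key/Preferably/More preferably): key of grades: preferably = shorter partial sequence still acting as epitope; more preferably = sequence improving IgE binding; key = particularly important sequence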
Assay type: binding, human
In short: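 Cellulose-bound 10-mer peptides offset by one residue were probed with patient serum IgE and detected by chemiluminescence. Secondary-antibody-only signals were subtracted per peptide. Residual binding was expressed as % of the parent overlapping peptide, scored as none (<30%), poor (30–<50%), somewhat poor (50–<70%) or retained (≥70%).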

[1] = serum of patient P50 (child, general immediate type allergy to wheat), sequence without X
[2] = serum of patient P12 (WDEIA), sequence without X
[3] = serum of patient P21 (WDEIA), sequence without X
[4] = serum of patient P35 (WDEIA), sequence without X

Substance: 1651 (NPDKVP; REGION 1..6: note = epitope) [compound 1651]
Rank of partial sequence as epitope binding to IgE antibody [1]: Key

Substance: 1416 (YLQPQQPIS; REGION 1..9: note = epitope) [compound 1416]
Epitope sequence binding to IgE antibody, rank of the sequence (serum of patient P8 (WDEIA), sequence without X): Key

Substance: 1595 (QPQQPF; REGION 1..6: note = epitope) [compound 1595]
Rank of partial sequence as epitope binding to IgE antibody (serum of patient P52 (child, general immediate type allergy to wheat), sequence without X): More preferably

Substance: 1454 (QQPISQQQAQ; REGION 1..10: note = epitope) [compound 1454]
Rank of partial sequence as epitope binding to IgE antibody (serum of patient P22 (WDEIA), sequence without X): More preferably

Substance: 1676 (KVPFVPISG; REGION 1..9: note = epitope) [compound 1676]
Rank of partial sequence as epitope binding to IgE antibody (serum of patient G5 (adult, general immediate type allergy to wheat), sequence without X): Preferably

Substance: 1368 (KPWQQQ; REGION 1..6: note = epitope) [compound 1368]
Epitope sequence binding to IgE antibody, rank of the sequence (Key/Preferably/More preferably/Further preferably) (serum of patient P2 (WDEIA), sequence without X): Key

Substance: 1681 (DKVPF; REGION 1..5: note = epitope) [compound 1681]
Rank of partial sequence as epitope binding to IgE antibody (serum of patient G6 (adult, general immediate type allergy to wheat), sequence without X): Preferably

Substance: 1206 (QQFPPQQP; REGION 1..8: note = epitope) [compound 1206]
Epitope sequence binding to IgE antibody, rank of the sequence (serum of patient P34 (WDEIA), sequence without X): Preferably

Substance: 1382 (PWQQQPLPP; REGION 1..9: note = epitope) [compound 1382]
Epitope sequence binding to IgE antibody, rank of the sequence [2]: Key

Substance: 1188 (QQFPPQQ; REGION 1..7: note = epitope) [compound 1188]
Epitope sequence binding to IgE antibody, rank of the sequence [3]: Preferably

Substance: 1179 (QQFPPQQ; REGION 1..7: note = epitope) [compound 1179]
Epitope sequence binding to IgE antibody, rank of the sequence [2]: Preferably

Substance: 1357 (NVEN; REGION 1..4: note = epitope) [compound 1357]
Epitope sequence binding to IgE antibody, rank of the sequence (serum of patient P36 (WDEIA), sequence without X): Key

Substance: 1615 (YNPD; REGION 1..4: note = epitope) [compound 1615]
Rank of partial sequence as epitope binding to IgE antibody (serum of patient P17 (WDEIA), sequence without X): Key

Substance: 1582 (FPQTQQPQ; REGION 1..8: note = epitope) [compound 1582]
Rank of partial sequence as epitope binding to IgE antibody (serum of patient P20 (WDEIA), sequence without X): Preferably

Substance: 1621 (YNPD; REGION 1..4: note = epitope) [compound 1621]
Rank of partial sequence as epitope binding to IgE antibody (serum of patient P24 (WDEIA), sequence without X): Key

Substance: 1250 (PQQPP; REGION 1..5: note = epitope) [compound 1250]
Epitope sequence binding to IgE antibody, rank of the sequence (serum of patient P33 (WDEIA), sequence without X): Key

Substance: 1650 (YNPDKVPF; REGION 1..8: note = epitope) [compound 1650]
Rank of partial sequence as epitope binding to IgE antibody [1]: Preferably

Substance: 1170 (FPPQQP; REGION 1..6: note = epitope) [compound 1170]
Epitope sequence binding to IgE antibody, rank of the sequence (serum of patient P3 (WDEIA), sequence without X): Key

Substance: 1586 (QQPFPQTQQP; REGION 1..10: note = epitope) [compound 1586]
Rank of partial sequence as epitope binding to IgE antibody [3]: More preferably

Substance: 1555 (QVPLVQQQ; REGION 1..8: note = epitope) [compound 1555]
Rank of partial sequence as epitope binding to IgE antibody [4]: Preferably

Continued, values first:

Epitope sequence binding to IgE antibody, rank of the sequence (serum of patient P21 (WDEIA), partial sequence): Key
Substance: 2558 (QSTYQLVQQL; REGION 1..10: note = epitope) [compound 2558]

epitope sequence binding to IgE antibody, rank (Key/Preferably/More preferably) (serum of patient P25 (WDEIA)): Key
Substance: 1863 (VIAEYTVRTL; REGION 1..10: note = epitope) [compound 1863]

Epitope sequence binding to IgE antibody, rank of the sequence (Key/Preferably/More preferably) (serum of patient G9 (adult, general immediate type allergy to wheat), sequence without X): Preferably
Substance: 2307 (RVIERFEK; REGION 1..8: note = epitope) [compound 2307]

Epitope sequence binding to IgE antibody, rank of the sequence (serum of patient P34 (WDEIA), partial sequence): Key
Substance: 2591 (QLVQQL; REGION 1..6: note = epitope) [compound 2591]

Epitope sequence binding to IgE antibody, rank of the sequence (serum of patient P3 (WDEIA), partial sequence): Preferably
Substance: 2703 (YKIGGIGTV; REGION 1..9: note = epitope) [compound 2703]

Epitope sequence binding to IgE antibody, rank of the sequence (serum of patient G7 (adult, general immediate type allergy to wheat), partial sequence): Key
Substance: 2673 (EAAEMNKR; REGION 1..8: note = epitope) [compound 2673]

Epitope sequence binding to IgE antibody, rank of the sequence (Key/Preferably/More preferably) (serum of patient P7 (WDEIA), sequence without X): Key
Substance: 2270 (DKRVIERFEK; REGION 1..10: note = epitope) [compound 2270]

epitope sequence binding to IgE antibody, rank (Key/Preferably/More preferably) (serum of patient P12 (WDEIA)): Key
Substance: 1846 (TVRTLQR; REGION 1..7: note = epitope) [compound 1846]

Epitope sequence binding to IgE antibody, rank of the sequence (serum of patient P31 (WDEIA), partial sequence): Preferably
Substance: 2739 (YKIGGIG; REGION 1..7: note = epitope) [compound 2739]

Epitope sequence binding to IgE antibody, rank of the sequence (serum of patient P20 (WDEIA), partial sequence): Preferably
Substance: 2643 (KEAAEMN; REGION 1..7: note = epitope) [compound 2643]

epitope sequence binding to IgE antibody, rank (Key/Preferably/More preferably) (serum of patient G7 (adult, general immediate type allergy to wheat)): Key
Substance: 1750 (KEAANFT; REGION 1..7: note = epitope) [compound 1750]

Epitope sequence binding to IgE antibody, rank of the sequence (Key/Preferably/More preferably) (serum of patient P29 (WDEIA), sequence without X): Preferably
Substance: 2233 (IRNYRVAI; REGION 1..8: note = epitope) [compound 2233]

epitope sequence binding to IgE antibody, rank (Key/Preferably/More preferably) (serum of patient G6 (adult, general immediate type allergy to wheat)): Preferably
Substance: 1889 (TVRTLQR; REGION 1..7: note = epitope) [compound 1889]

epitope sequence binding to IgE antibody, rank (Key/Preferably/More preferably) (serum of patient P52 (child, general immediate type allergy to wheat)): Key
Substance: 1728 (KEAANF; REGION 1..6: note = epitope) [compound 1728]

Epitope sequence binding to IgE antibody, rank of the sequence (serum of patient P30 (WDEIA), partial sequence): Key
Substance: 2579 (YQLVQQ; REGION 1..6: note = epitope) [compound 2579]

Epitope sequence binding to IgE antibody, rank of the sequence (serum of patient P7 (WDEIA), partial sequence): Key
Substance: 2497 (QVSF; REGION 1..4: note = epitope) [compound 2497]

Epitope sequence binding to IgE antibody, rank of the sequence (Key/Preferably/More preferably) [4]: Preferably
Substance: 2453 (LKAWSGK; REGION 1..7: note = epitope) [compound 2453]

Rank of partial sequence as epitope binding to IgE antibody (serum of patient P19 (WDEIA), sequence without X): Key
Substance: 1694 (EAANFTS; REGION 1..7: note = epitope) [compound 1694]

epitope sequence binding to IgE antibody, rank (Key/Preferably/More preferably) (serum of patient P8 (WDEIA)): Preferably
Substance: 1841 (YTVRTLQ; REGION 1..7: note = epitope) [compound 1841]

Epitope sequence binding to IgE antibody, rank of the sequence (serum of patient P16 (WDEIA), partial sequence): Key
Substance: 2642 (KEAAEM; REGION 1..6: note = epitope) [compound 2642]

Epitope sequence binding to IgE antibody, rank of the sequence (serum of patient G8 (adult, general immediate type allergy to wheat), partial sequence): Key
Substance: 2699 (YKGPTL; REGION 1..6: note = epitope) [compound 2699]

epitope sequence binding to IgE antibody, rank (Key/Preferably/More preferably) (serum of patient P26 (WDEIA)): Preferably
Substance: 1954 (QQFPGQQ; REGION 1..7: note = epitope) [compound 1954]

epitope sequence binding to IgE antibody, rank (Key/Preferably/More preferably) (serum of patient P3 (WDEIA)): Key
Substance: 1791 (PKFL; REGION 1..4: note = epitope) [compound 1791]

Epitope sequence binding to IgE antibody, rank of the sequence (serum of patient P28 (WDEIA), partial sequence): Preferably
Substance: 2574 (QLVQQL; REGION 1..6: note = epitope) [compound 2574]

epitope sequence binding to IgE antibody, rank (Key/Preferably/More preferably) (serum of patient P3 (WDEIA)): Key
Substance: 1901 (VPLVQ; REGION 1..5: note = epitope) [compound 1901]

Epitope sequence binding to IgE antibody, rank of the sequence (Key/Preferably/More preferably) (serum of patient P14 (WDEIA), sequence without X): Key
Substance: 2356 (YVTEIV; REGION 1..6: note = epitope) [compound 2356]

epitope sequence binding to IgE antibody, rank (Key/Preferably/More preferably) (serum of patient P18 (WDEIA)): Key
Substance: 1803 (SGKELE; REGION 1..6: note = epitope) [compound 1803]

epitope sequence binding to IgE antibody, rank (Key/Preferably/More preferably) (serum of patient P15 (WDEIA)): Preferably
Substance: 1796 (SGKELEALPK; REGION 1..10: note = epitope) [compound 1796]

Epitope sequence binding to IgE antibody, rank of the sequence (serum of patient P15 (WDEIA), partial sequence): Key
Substance: 2503 (SSQVSF; REGION 1..6: note = epitope) [compound 2503]

Epitope sequence binding to IgE antibody, rank of the sequence (Key/Preferably/More preferably) (serum of patient P5 (WDEIA), sequence without X): Key
Substance: 2266 (GGIDKRV; REGION 1..7: note = epitope) [compound 2266]
